# Legend:
# dsDNA versus ssDNA = test: In vitro selectivity dsDNA versus ssDNA; assay type: binding
# Procedure: Six compounds (2, 34, 35, 41, 42, and 48) were characterized in in vitro selectivity experiments for double-stranded DNA (dsDNA) versus single-stranded DNA (ssDNA). These compounds were compared against comparative compounds R^1 and R^2.
# For each individual compound, the dsDNA and ssDNA fluorescence emission at 10 ng/μL was compared to evaluate in vitro selectivity for dsDNA/ssDNA, as shown in FIG. 4.
# Further in vitro selectivity experiments for double-stranded DNA (dsDNA) versus single-stranded DNA (ssDNA) were performed using the methods outlined in Example 3 to compare compounds 2, 34, 41, 42, and 48 to comparative compounds R1 and R2.
# For each individual compound, the dsDNA and ssDNA fluorescence emission at 10 ng/μL was calculated to estimate in vitro selectivity, as shown in FIG. 7.
# dsDNA = test: Microplate fluorescence when bound to dsDNA; assay type: binding; conditions: 500 ng/mL dsDNA
# Procedure: Compounds were tested in triplicate for fluorescence enhancement when bound to dsDNA. 190 μL of 1 μM compound in 1× Tris-EDTA, pH 7.5, 0.01% CHAPS was added to 10 μL of 4 different concentrations of dsDNA (0, 25 ng/mL, 200 ng/mL, and 500 ng/mL) in wells of 96 well Costar black, clear bottom microplates. Plates were read on a SpectraFluor multifunction microplate reader (Tecan) at 491 nm excitation and 520 nm emission.
# Compounds were tested for fluorescence enhancement when bound to dsDNA as described in Example 3. Fluorescence data with dsDNA are shown in FIG. 5 for the different tested compounds.
# ssDNA = test: Microplate fluorescence when bound to ssDNA; assay type: binding; conditions: for Ratio to R1, fluorescent emission with ssDNA / fluorescent emission with ssDNA: 500 ng/mL ssDNA; for ssDNA emission: text says 10 ng/μL
# Procedure: The compounds from FIG. 1 were also characterized with respect to their fluorescence enhancement when bound to ssDNA. The compounds from FIG. 1, R1 and R2 were tested in triplicate. 190 μL of 1 μM compound in 1× Tris-EDTA pH7.5, 0.01% CHAPS was added to 10 μL of 4 different concentrations of ssDNA in wells of 96 well Costar black, clear bottom microplates. Plates were read on a SpectraFluor multifunction microplate reader (Tecan) at 491 nm excitation and 520 nm emission. Fluorescence data with ssDNA are shown in FIG. 3 for the different tested compounds.
# Next, the compounds were compared for their fluorescence enhancement when bound to ssDNA as described in Example 1. Fluorescence data with ssDNA are shown in FIG. 6 for the different tested compounds.
# [1] = UV/VIS absorption spectra; assay type: physicochemical; conditions: 10 μM compound in 50 mM potassium phosphate buffer (pH 7.0)
# Procedure: The UV/VIS absorption spectra were obtained with 10 μM compound solution in 50 mM potassium phosphate buffer (pH 7.0) in a final volume of 3 mL. Measurements were carried out using a Lambda 245 spectrophotometer from Perkin Elmer.
# calf thymus DNA = test: Fluorescence emission and enhancement of compounds bound to calf thymus DNA; assay type: binding; conditions: 0.8 μM compound with 500 ng/ml calf thymus DNA in TE buffer; for Emission Max: excited at 488 nm; for Fluorescence Enhancement: emission area 500-715 nm compared to compound 1, defined as 1000-fold
# Procedure: Compounds 1-65 were prepared and their fluorescence absorption and emission characteristics were measured. Intrinsic fluorescence of the compounds only (without DNA) was negligible. Emission spectra for the compounds bound to dsDNA were obtained by incubating 0.8 μM compound with 500 ng/ml calf thymus DNA in TE buffer (10 mM Tris-HCl, pH 7.5, 1 mM EDTA) in a final volume of 3 ml. Measurements were made using PerkinElmer LS 55 (F-11) Fluorescence spectrometer. Samples were excited at 488 nm and fluorescence emission was measured with emission slit widths of 2.5 nm. Absorption maxima were determined according to standard techniques.
# Fluorescence enhancement measurements of the compounds were obtained by incubating 0.8 μM compound with 500 ng/ml calf thymus DNA with compounds at a final concentration of 0.8 μM in TE buffer. Compound 1 was used as an internal standard to control for variability (e.g., in excitation light intensity). The area-under-curve of fluorescence emission spectra from 500 nm to 715 nm was calculated, and compared to that of compound 1, which was defined as having 1000-fold fluorescence enhancement relative to fluorescence of the compound alone.
# [2] = Example 3, Table 2, 1 μM compound, 491 nm excitation, 520 nm emission
# [3] = Example 3, Table 3, 1 μM compound, 491 nm excitation, 520 nm emission
# [4] = Example 3, Table 4, FIG. 4 says 500 ng/mL
# [5] = Example 4, Table 7, FIG. 7 says 500 ng/mL
SMILES,Absorbance Max [1],Emission Max (calf thymus DNA),Fluorescence Enhancement (calf thymus DNA),also measured
"COc1ccc2c(c1)N(c1ccccc1)C(N(CCC[N+](C)(C)C)CCC[N+](C)(C)C)=CC2=Cc1sc2ccccc2[n+]1C.I [Compound R2, reference compound]",,,,"ratio of dsDNA emission versus ssDNA emission (dsDNA versus ssDNA; Example 3, Table 4): 5.2; ratio of dsDNA emission versus ssDNA emission (dsDNA versus ssDNA; Example 4, Table 7): 6.6; Ratio to R1, fluorescent emission with dsDNA (dsDNA; Example 3, Table 2): 1.59; fluorescent emission with dsDNA (dsDNA; [2]): 8627; Ratio to R1, fluorescent emission with dsDNA (dsDNA; Example 4, Table 5): 1.7; fluorescent emission with dsDNA (dsDNA; Example 4, Table 5): 9941; Ratio to R1, fluorescent emission with ssDNA (ssDNA; Example 3, Table 3): 1.5; fluorescent emission with ssDNA (ssDNA; [3]): 1669; ssDNA emission (ssDNA; [4]): 1669; fluorescent emission with ssDNA (ssDNA; Example 4, Table 6): 1512; ssDNA emission (ssDNA; [5]): 1512"
CN(C)CCCN(C)C1=C/C(=C/c2sc3ccccc3[n+]2C)c2ccccc2N1c1ccccc1.[I-] [Compound 21],491 nm,522 nm,639 fold,
CCN(CCCN(C)C)C1=C/C(=C/c2sc3ccccc3[n+]2C)c2ccccc2N1c1ccccc1.[I-] [Compound 15],495 nm,524 nm,864 fold,
CCCCN(CCC[N+](C)(C)CCO)C1=CC(=Cc2sc3ccccc3[n+]2C)c2ccc(OC)cc2N1c1ccccc1.[I-].[I-] [Compound 38],489 nm,520 nm,1089 fold,
CN(CCC[N+](C)(C)CCO)C1=C/C(=C/c2sc3ccccc3[n+]2C)c2ccccc2N1c1ccccc1.[I-].[I-] [Compound 25],497 nm,523 nm,640 fold,
CCCCN(CCC[N+](C)(C)CCO)C1=C/C(=C/c2sc3ccccc3[n+]2C)c2ccccc2N1c1ccccc1.[I-].[I-] [Compound 12],496 nm,525 nm,937 fold,
CCN(CCN(C)C)C1=C/C(=C/c2sc3ccccc3[n+]2C)c2ccc(OC)cc2N1c1ccccc1.[I-] [Compound 55],496 nm,520 nm,908 fold,
CCCN(CCC[N+](C)(C)Cc1cccc(OC)c1)C1=C/C(=C/c2sc3ccccc3[n+]2C)c2ccccc2N1c1ccccc1.[Br-].[Cl-] [Compound 7],502 nm,522 nm,978 fold,
CN(C)CCCC1=C/C(=C/c2sc3ccccc3[n+]2C)c2ccccc2N1c1ccccc1 [Compound 64],527 nm,529 nm,204 fold,
CCCCN(CCC[N+](C)(C)CCC)C1=C/C(=C/c2sc3ccccc3[n+]2C)c2ccccc2N1c1ccccc1.[I-].[I-] [Compound 11],496 nm,524 nm,903 fold,
CC[N+](C)(C)CCCN(C)C1=C/C(=C/c2sc3ccccc3[n+]2C)c2ccccc2N1c1ccccc1.[I-].[I-] [Compound 23],498 nm,524 nm,622 fold,
COc1cccc(C[N+](C)(C)CCCN(C)C2=C/C(=C/c3sc4ccccc4[n+]3C)c3ccccc3N2c2ccccc2)c1.[Br-].[I-] [Compound 27],498 nm,521 nm,668 fold,
"CN(C)CCCN(CCCN(C)C)C1=CC(=Cc2sc3ccccc3[n+]2C)c2ccccc2N1c1ccccc1.[I-] [Compound R1, reference compound]",,,,"ratio of dsDNA emission versus ssDNA emission (dsDNA versus ssDNA; Example 3, Table 4): 5.0; ratio of dsDNA emission versus ssDNA emission (dsDNA versus ssDNA; Example 4, Table 7): 5.5; Ratio to R1, fluorescent emission with dsDNA (dsDNA; Example 3, Table 2): 1.00; fluorescent emission with dsDNA (dsDNA; [2]): 5441; Ratio to R1, fluorescent emission with dsDNA (dsDNA; Example 4, Table 5): 1.0; fluorescent emission with dsDNA (dsDNA; Example 4, Table 5): 5887; Ratio to R1, fluorescent emission with ssDNA (ssDNA; Example 3, Table 3): 1.0; fluorescent emission with ssDNA (ssDNA; [3]): 1081; ssDNA emission (ssDNA; [4]): 1081; fluorescent emission with ssDNA (ssDNA; Example 4, Table 6): 1080; ssDNA emission (ssDNA; [5]): 1080"
CCCN(CCC[N+](C)(C)Cc1ccccc1)C1=C/C(=C/c2sc3ccccc3[n+]2C)c2ccc(OC)cc2N1c1ccccc1.[Br-].[I-] [Compound 46],494 nm,520 nm,931 fold,
CCCCN(CCC[N+](C)(C)CCC)C1=CC(=Cc2sc3ccccc3[n+]2C)c2ccc(OC)cc2N1c1ccccc1.[I-].[I-] [Compound 37],489 nm,519 nm,1089 fold,
CCCN(CCC[N+](C)(C)CCC)C1=C/C(=C/c2sc3ccccc3[n+]2C)c2ccccc2N1c1ccccc1.[I-].[I-] [Compound 4],501 nm,524 nm,925 fold,

# More lines, main results first:
Absorbance Max [1],Emission Max (calf thymus DNA),SMILES,Fluorescence Enhancement (calf thymus DNA),also measured
490 nm,520 nm,CCN(CCC[N+](C)(C)Cc1ccccc1)C1=C/C(=C/c2sc3ccccc3[n+]2C)c2ccc(OC)cc2N1c1ccccc1.[Br-].[I-] [Compound 53],1011 fold,
494 nm,517 nm,CCCN(CCC[N+](C)(C)CCO)C1=CC(=Cc2sc3ccccc3[n+]2C)c2ccc(OC)cc2N1c1ccccc1.[I-].[I-] [Compound 45],1093 fold,
496 nm,521 nm,CCN(CC[N+](C)(C)CC)C1=C/C(=C/c2sc3ccccc3[n+]2C)c2ccc(OC)cc2N1c1ccccc1.[I-].[I-] [Compound 57],877 fold,
489 nm,521 nm,CCCCN(CCC[N+](C)(C)CC)C1=CC(=Cc2sc3ccccc3[n+]2C)c2ccc(OC)cc2N1c1ccccc1.[I-].[I-] [Compound 36],1071 fold,
498 nm,521 nm,CN(CCC[N+](C)(C)Cc1ccccc1)C1=C/C(=C/c2sc3ccccc3[n+]2C)c2ccccc2N1c1ccccc1.[I-].[I-] [Compound 26],653 fold,
490 nm,519 nm,CCN(CCC[N+](C)(C)CCO)C1=C/C(=C/c2sc3ccccc3[n+]2C)c2ccc(OC)cc2N1c1ccccc1 [Compound 52],1031 fold,
506 nm,528 nm,CCN(CC[N+](C)(C)C)C1=C/C(=C/c2sc3ccccc3[n+]2C)c2ccccc2N1c1ccccc1.[Cl-].[I-] [Compound 29],648 fold,
507 nm,526 nm,CCN(CC[N+](C)(C)Cc1cccc(OC)c1)C1=C/C(=C/c2sc3ccccc3[n+]2C)c2ccccc2N1c1ccccc1.[Br-].[I-] [Compound 33],652 fold,

# Source: patent US20200263231A1, “Fluorogenic dyes for high sensitivity DNA detection” (LIFE TECHNOLOGIES CORPORATION, priority 2016, published 2020)
